In the NIST ThermoML archive (doi:10.1021/je700293s):
Numbers after ± are expanded uncertainties.

Test: xn = mol fraction of the nth substance listed
Conditions: 101 kPa, Liquid, Capillary tube (Ostwald / Ubbelohde) method

CCCCCCCC(=O)OCC(COC(=O)CCCCCCC)OC(=O)CCCCCCC [1,2,3-propanetriol trioctanoate] + CCCCCCCCCC(=O)O
kinematic viscosity (303.15 K, x2 = 0.4763): 1.48e-05 ± 4.9e-07 m2/s | kinematic viscosity (303.15 K, x2 = 0.7423): 1.29e-05 ± 4.2e-07 m2/s | kinematic viscosity (303.15 K, x2 = 0.8902): 8.98e-06 ± 2.9e-07 m2/s | kinematic viscosity (313.15 K, x2 = 0.4763): 1.05e-05 ± 3.5e-07 m2/s | kinematic viscosity (313.15 K, x2 = 0.7423): 9.46e-06 ± 3.1e-07 m2/s | kinematic viscosity (313.15 K, x2 = 0.8902): 7.83e-06 ± 2.6e-07 m2/s | kinematic viscosity (323.15 K, x2 = 0.4763): 7.89e-06 ± 2.6e-07 m2/s | kinematic viscosity (323.15 K, x2 = 0.7423): 7.16e-06 ± 2.4e-07 m2/s | kinematic viscosity (323.15 K, x2 = 0.8902): 6.09e-06 ± 2e-07 m2/s | kinematic viscosity (333.15 K, x2 = 0.4763): 6.15e-06 ± 2e-07 m2/s | kinematic viscosity (333.15 K, x2 = 0.7423): 5.66e-06 ± 1.9e-07 m2/s | kinematic viscosity (333.15 K, x2 = 0.8902): 4.9e-06 ± 1.6e-07 m2/s | kinematic viscosity (343.15 K, x2 = 0.4763): 5.12e-06 ± 1.7e-07 m2/s | kinematic viscosity (343.15 K, x2 = 0.7423): 4.57e-06 ± 1.5e-07 m2/s | kinematic viscosity (343.15 K, x2 = 0.8902): 3.99e-06 ± 1.3e-07 m2/s | kinematic viscosity (353.15 K, x2 = 0.4763): 4.13e-06 ± 1.4e-07 m2/s | kinematic viscosity (353.15 K, x2 = 0.7423): 3.88e-06 ± 1.3e-07 m2/s | kinematic viscosity (353.15 K, x2 = 0.8902): 3.24e-06 ± 1.1e-07 m2/s | kinematic viscosity (363.15 K, x2 = 0.4763): 3.53e-06 ± 1.2e-07 m2/s | kinematic viscosity (363.15 K, x2 = 0.7423): 3.18e-06 ± 1.1e-07 m2/s | kinematic viscosity (363.15 K, x2 = 0.8902): 2.58e-06 ± 9e-08 m2/s

CCCCCCCC/C=C\CCCCCCCC(=O)O [(Z)-9-octadecenoic acid] + CCCCCCCC/C=C\CCCCCCCC(=O)OCC(COC(=O)CCCCCCC/C=C\CCCCCCCC)OC(=O)CCCCCCC/C=C\CCCCCCCC
kinematic viscosity (293.15 K, x1 = 0.758): 6.78e-05 ± 2.3e-06 m2/s | kinematic viscosity (303.15 K, x1 = 0.758): 4.49e-05 ± 1.5e-06 m2/s | kinematic viscosity (313.15 K, x1 = 0.758): 3.13e-05 ± 1e-06 m2/s | kinematic viscosity (323.15 K, x1 = 0.758): 2.28e-05 ± 7.6e-07 m2/s | kinematic viscosity (333.15 K, x1 = 0.758): 1.62e-05 ± 5.4e-07 m2/s | kinematic viscosity (343.15 K, x1 = 0.758): 1.26e-05 ± 4.2e-07 m2/s | kinematic viscosity (353.15 K, x1 = 0.758): 1e-05 ± 3.3e-07 m2/s | kinematic viscosity (363.15 K, x1 = 0.758): 8.22e-06 ± 2.7e-07 m2/s

CCCCCCCC/C=C\CCCCCCCC(=O)O [(Z)-9-octadecenoic acid] + CCCCCCCCCC(=O)O
kinematic viscosity (303.15 K, x2 = 0.3533): 1.99e-05 ± 6.6e-07 m2/s | kinematic viscosity (303.15 K, x2 = 0.6211): 1.45e-05 ± 4.8e-07 m2/s | kinematic viscosity (313.15 K, x2 = 0.3533): 1.45e-05 ± 4.8e-07 m2/s | kinematic viscosity (313.15 K, x2 = 0.6211): 1.08e-05 ± 3.6e-07 m2/s | kinematic viscosity (323.15 K, x2 = 0.3533): 1.09e-05 ± 3.6e-07 m2/s | kinematic viscosity (323.15 K, x2 = 0.6211): 8.25e-06 ± 2.7e-07 m2/s | kinematic viscosity (333.15 K, x2 = 0.3533): 8.52e-06 ± 2.8e-07 m2/s | kinematic viscosity (333.15 K, x2 = 0.6211): 6.39e-06 ± 2.1e-07 m2/s | kinematic viscosity (343.15 K, x2 = 0.3533): 6.83e-06 ± 2.3e-07 m2/s | kinematic viscosity (343.15 K, x2 = 0.6211): 5.17e-06 ± 1.7e-07 m2/s | kinematic viscosity (353.15 K, x2 = 0.3533): 5.63e-06 ± 1.9e-07 m2/s | kinematic viscosity (353.15 K, x2 = 0.6211): 4.27e-06 ± 1.4e-07 m2/s | kinematic viscosity (363.15 K, x2 = 0.3533): 4.69e-06 ± 1.5e-07 m2/s | kinematic viscosity (363.15 K, x2 = 0.6211): 3.36e-06 ± 1.1e-07 m2/s

CCCCC/C=C\C/C=C\CCCCCCCC(=O)O [(Z,Z)-9,12-octadecadienoic acid] + CCCCCCCC/C=C\CCCCCCCC(=O)OCC(COC(=O)CCCCCCC/C=C\CCCCCCCC)OC(=O)CCCCCCC/C=C\CCCCCCCC
kinematic viscosity (303.15 K, x1 = 0.7576): 2.96e-05 ± 9.8e-07 m2/s | kinematic viscosity (313.15 K, x1 = 0.7576): 2.13e-05 ± 7.1e-07 m2/s | kinematic viscosity (323.15 K, x1 = 0.7576): 1.59e-05 ± 5.3e-07 m2/s | kinematic viscosity (333.15 K, x1 = 0.7576): 1.23e-05 ± 4.1e-07 m2/s | kinematic viscosity (343.15 K, x1 = 0.7576): 9.76e-06 ± 3.2e-07 m2/s | kinematic viscosity (353.15 K, x1 = 0.7576): 7.91e-06 ± 2.6e-07 m2/s | kinematic viscosity (363.15 K, x1 = 0.7576): 6.52e-06 ± 2.2e-07 m2/s

CCCCC/C=C\C/C=C\CCCCCCCC(=O)OCC(COC(=O)CCCCCCC/C=C\C/C=C\CCCCC)OC(=O)CCCCCCC/C=C\C/C=C\CCCCC [trilinolein] + CCCCC/C=C\C/C=C\CCCCCCCC(=O)O
kinematic viscosity (303.15 K, x2 = 0.7536): 2.55e-05 ± 8.4e-07 m2/s | kinematic viscosity (313.15 K, x2 = 0.7536): 1.85e-05 ± 6.2e-07 m2/s | kinematic viscosity (323.15 K, x2 = 0.7536): 1.31e-05 ± 4.4e-07 m2/s | kinematic viscosity (333.15 K, x2 = 0.7536): 9.96e-06 ± 3.3e-07 m2/s | kinematic viscosity (343.15 K, x2 = 0.7536): 7.98e-06 ± 2.6e-07 m2/s | kinematic viscosity (353.15 K, x2 = 0.7536): 6.83e-06 ± 2.2e-07 m2/s | kinematic viscosity (363.15 K, x2 = 0.7536): 5.69e-06 ± 1.9e-07 m2/s

CCCCC/C=C\C/C=C\CCCCCCCC(=O)OCC(COC(=O)CCCCCCC/C=C\C/C=C\CCCCC)OC(=O)CCCCCCC/C=C\C/C=C\CCCCC [trilinolein] + CCCCCCCC/C=C\CCCCCCCC(=O)O
kinematic viscosity (293.15 K, x2 = 0.7564): 4.14e-05 ± 1.4e-06 m2/s | kinematic viscosity (303.15 K, x2 = 0.7564): 2.82e-05 ± 9.4e-07 m2/s | kinematic viscosity (313.15 K, x2 = 0.7564): 2.07e-05 ± 6.9e-07 m2/s | kinematic viscosity (323.15 K, x2 = 0.7564): 1.48e-05 ± 4.9e-07 m2/s | kinematic viscosity (333.15 K, x2 = 0.7564): 1.15e-05 ± 3.8e-07 m2/s | kinematic viscosity (343.15 K, x2 = 0.7564): 9.32e-06 ± 3.1e-07 m2/s | kinematic viscosity (353.15 K, x2 = 0.7564): 7.62e-06 ± 2.5e-07 m2/s | kinematic viscosity (363.15 K, x2 = 0.7564): 6.38e-06 ± 2.1e-07 m2/s
